In patent US11827663B2, “Use of UAP inhibitors to inhibit flux through the hexosamine biosynthetic pathway” (The Johns Hopkins University, priority 2014, dated 2023):

Assays:
[1] = test system: primary glioblastoma line GS1049; assay: Cell count of primary glioblastoma line GS1049; assay type: cell-based; conditions: 48 h incubation, cell counting normalized to untreated controls; read-out: Estimated IC50 values, GS 1049
Protocol: FIG. 7A depicts the results of primary glioblastoma lines 612 and GS1049 after incubation for 48 h with Ac4Glc2Bz followed by cell counting and normalization to untreated controls. The data is log transformed to easily determine IC50 values. FIG. 7B and FIG. 7C depict the measurement of proliferation of the primary glioblastoma lines after 48 h incubation with Ac4Glc2Bz using a MTT assay.
Cells were incubated at a range of concentrations of the UAP inhibitors (typically at 0, 10, 25, 50, 100, and 150 μM) and the number of cells were quantified, typically by automated counting (e.g., with a Coulter Counter Z2 instrument) after 1, 2, 3, or 5 days of exposure.

[2] = test system: UDP-Glc/GalNAc (HexNAc), product of UAP1/2; assay: Targeted metabolomics, LC-MS/MS of UDP-HexNAc in 612 cells; assay type: cell-based
Protocol: FIGS. 16A-16B show exemplary targeted metabolomics results from primary glioblastoma cells. […] (n=3, with error bars representing SEM;* indicates p<0.05)
In FIGS. 16A-16B, representative targeted metabolomics results from primary glioblastoma cells were quantitated using LC-MS/MS traces. For example, the 612 cells were treated with 50 μM or 100 μM of Ac4Glc2Bz or non-treated (control). Afterwards, the cell extracts were obtained using Bligh-Dyer extraction and the extracts were analyzed using LC-MS/MS. Twelve 150-mm tissue culture plates were coated with lamin (1 ug/cm^2) in PBS for 24 h. 5×10^6 612 cells were seed onto each plate in 20 mL of media for condition tested: DMSO vehicle control (2 plates) (matched to the volume of vehicle used for the 100 μM condition), 50 μM (4 plates), 100 μM (6 plates). Ater 48 h, the plates were cooled for 10 minutes on ice followed by aspiration of the media. The plates were then tilted at 30° for 30 seconds and any remaining media was removed. Plates were washed twice with 10 mL of ice cold PBS (calcium and magnesium ion free). Next, the plates were covered and chilled with dry ice for 10 minutes to completely freeze all of the cells. While freezing the cells, a solution of methanol:H2O (2:0.8) was made and chilled in an isopropyl alcohol-dry ice bath. The plates were transferred to wet ice and 500 μL of the MeOH:H2O solution was added to the plates. Cells were scraped and the were transferred to a 15 mL tube. 500 μL more of the methanol:H2O solution was added again, and any remaining cells were scraped off the plates and were transferred to the 15 mL tubes. Samples, while remaining cold, were sonicated 2-5 times for 1 s and 1 part of chloroform was added to produce a ration of 1:2:0.8 (CHCl3:MeOH:H2O). Samples were briefly vortexed while still cold and 1 part of H2O was added followed by vortexing. […] DNA quantity from the interphase disc was determined using a fluorescent assay (SIGMA). […] The aqeuous layers were combined after normazling reconstitutions to the quantities of DNA obtained for each condition tested. […]

SMILES: CC(=O)OCC1OC(OC(C)=O)[C@@H](NC(=O)c2ccccc2)[C@@H](OC(C)=O)[C@@H]1OC(C)=O (stereo partly shown) [Ac4Glc2Bz]
- IC50 [1]: 88.8 ± 1.8 µM
- LC-MS/MS peaks for UDP-HexNAc in treated cell extracts ([2]; 612 cells, 50 μM or 100 μM, 48 h): substantially lower
- reduction of quantitized amount of UDP-HexNAc, particularly UDP-GlcNAc, vs non-treated cell ([2]; 612 cells, 50 μM, 48 h): ~4 fold
- residual level of UDP-GlcNAc ([2]; printed as shown in FIGS. 18A-18B): about 25%
